The target of one test is AMPA receptor. Put plainly: [3H] CNQX binding test (AMPA-receptor binding), brain membranes. The conditions noted are these: 5 nM [3H]-CNQX, 4° C., 40 min. The protocol:
CNQX binding test (Honoré et al. Biochem. Pharmacol. 1989, 38: 3207-3212). This test is performed as follows:
Brain membranes: The animals are decapitated, the brain removed and homogenized in 10 volumes of ice-cold 10% sucrose with a glass/Teflon homogenizer at positions 5 for 30 sec. The membranes are centrifuged at 1000×g for 10 min, and the supernatant centrifuged at 20,000×g for 15 min. The resulting pellet is resuspended in 10 volumes of cold water with a tissue homogenizer (Brinkman Polytron) at position 5 for 15 sec and the suspension centrifuged at 8000×g for 10 min. The supernatant including the buffy layer is centrifuged at 40,000×g for 20 min, the pellet resuspended in 5 volumes of water and the suspension frozen (20-30 min in dry ice/methanol) and thawed (water-bath at 37° C.) twice. The suspension is centrifuged at 40,000×g for 20 min, the pellet resuspended in 50 mM HEPES/KOH, pH 7.5, and centrifuged at 40,000×g for 10 min. […]
Radioligand binding assay: It is performed using 96-well microtiterplates in a volume of 0.3 ml of 50 mM HEPES/KOH, pH 7.2, 100 μg membrane protein, 5 nM [^3H]-CNQX (NEN) and the compound to be tested. […] Two hundred μl of the scintillation fluid Microscint 20 (Packard) are added and the radioactivity is counted in a Packard Topcount scintillation counter at an efficiency of 40-45%. […]

Test [1] has as its target T1, rat GluR3-(flop) AMPA receptor (Rattus norvegicus, UniProt P19492).
T1 construct: expressed in transfected cells; host or cells: Xenopus laevis oocytes (cRNA injection)
Put plainly: Functional test for AMPA-receptor activity, two electrode voltage clamp in Xenopus laevis oocytes. The format is cell-based. The conditions noted are these: Xenopus oocytes expressing rGluR3-(flop); read-out: IC50-value, antagonist at the rGluR3 AMPA receptor. The protocol:
For the determination of functional agonism or antagonism at the AMPA-receptor, experiments can be performed on Xenopus oocytes as previously described in detail (Urwyler et al., Mol. Pharmacol. 2001, 60, 963-971). Briefly, two electrode voltage clamp recordings are performed from Xenopus laevis oocytes expressing GluR3 AMPA receptors. Plasmids for the rat GluR3-(flop) (Hollmann et al., Science 1991, 252, 851-853) are linearized and transcribed into capped cRNA using an in vitro RNA synthesis kit (Ambion, Tex.) with T7 Polymerase. Stock solutions are kept in 70% ethanol. Before use, cRNA is precipitated and resuspended in DEPC-treated water. Oocytes are injected with RNA coding the rat GluR3-(flop) AMPA receptor. For recordings, oocytes are placed in a perfusion chamber with continuous gravity flow of frog Ringer's solution. For recordings from oocytes expressing rGluR3-(flop) receptors frog, Ringer's solution containing Mg^2+ (81 mM NaCl; 2.5 mM KCl; 1 mM CaCl2; 1 mM MgCl2, 2.5 mM NaHCO3, 5 mM HEPES, pH 7.4) is used. Test compounds are washed in with gravity.
For orientation: In two-electrode clamp one electrode senses voltage and the other passes current.

Test [2] concerns patients with diabetic neuropathy. Put plainly: Clinical study, chronic pain in patients with diabetic neuropathy. The format is in vivo, human. Particulars: 2400 mg/day, Maintenance and Follow-up Periods, statistically significant. The protocol: Patients are randomized to receive 2400 mg/day of the compound or placebo in a 1:1 ratio.
The study consists of a Pre-randomization Phase (1 week) and a Double-blind Phase (5 weeks). The double-blind Phase consists of three periods: a one week Titration Period, a three-week Maintenance Period and a one-week Follow-up Period.
During the 1-week Pre-randomization Phase, the eligibility of the patients is evaluated. Patients meeting all inclusion/exclusion criteria are randomized to either the compound or placebo in the Double-blind Phase. During the 1-week Titration Period, study medication is up-titrated from 800 mg/day (given b.i.d.) to 2400 mg/day (given b.i.d.). Patients who complete the 1-week Titration Period then enter the 3-week Maintenance Period. Patients who complete the 3-week Maintenance period or prematurely discontinue double-blind treatment then enter the 1-week Follow-up Period. Study medication is completely withdrawn on entry into the Follow-up Period. During the Double-blind Phase, serial efficacy and safety assessments are obtained. […]
The SF-MPQ total pain score at the end of the Maintenance Period is analyzed using an analysis of covariance model adjusting for the effect of treatment on post-treatment scores by using the baseline SF-MPQ total pain score as a covariate. Average weekly pain severity is analyzed using an analysis of covariance model with repeated measures using the treatment week and the mean pain severity rating during the Pre-randomization Phase as covariates. Usage of rescue medication during the Double-blind Phase is analyzed using the Cochran-Mantel-Haenszel test controlling for center. The mean pain severity rating during the Follow-up Period (rebound pain) is analyzed using an analysis of covariance model adjusting for the effect of treatment on the mean pain severity rating of the Follow-up Period with the mean pain severity rating during the Prerandomization Phase as a covariate.

Test [3] relates to Wistar Kyoto rats. Put plainly: Test 2: NMDA-channel blocker induced head swaying and circling. The format is in vivo, rat. The conditions noted are these: 10 mg/kg s.c., alone. The protocol: Adult male Wistar Kyoto rats (340-380 g; Iffa Credo, Lyon, France) are used. The animals are randomized to the following treatment groups (n=10 per group): the compound (dosed 0, 3 or 10 mg/kg) followed by phencyclidine (PCP; an NMDA channel blocker, dosed 0 or 10 mg/kg). Compound (at t=−15 min) and PCP (at t=0 min) are administered s.c. in a volume of 1 ml/kg. Video-recordings of the animals behaviour over the period 0-30 min following PCP are scored by an observer who is unaware about the animals pretreatment. Head-swaying (rocking the head repeatedly by at least 2 cm left and right) and circling (turning around by using the forepaws, whereas the hindpaws remain more or less on the original position) are scored as present (1) or absent (0), every five minutes for the duruation of 1 minute. The scores for individual animals is summed and group scores used for statistical analysis (t-test with Bonferroni correction).

For test [4], the system named is Wistar Kyoto rats. The test can be described thus: Test 1: NMDA-antagonist induced locomotion. Particulars: 10 mg/kg s.c. In kind it is in vivo, rat. How it is done:
Male Wistar Kyoto rats (Iffa Crédo, Lyon, France) weighing between 250 and 310 g are used. In principle 4 treatment groups are formed: 1) the compound (doses 1, 3 or 10 mg/kg) followed by the competitive NMDA receptor antagonist (S)-2-amino-3-(2′-chloro-5-phosphonomethyl-biphenyl-3-yl)-propionic acid, hereinafter SDZ 220-581 (10 mg/kg), 2) solvent-pretreatment followed by SDZ 220-581 (10 mg/kg), 3) solvent followed by solvent, 4) the compound (1, 3, 10 mg/kg) followed by solvent. Rats are randomly allocated to these pretreatment groups (n=10/dose group). Drugs are administered subcutaneous (s.c.), 15 min prior to SDZ 220-581. Immediately after the animals received SDZ 220-581, they are placed into the activity monitor for a period of 60 min. Locomotor activity is analysed over the initial 30 minutes.
Locomotion is recorded with a videotracking system (VideoMot2, TSE Technical and Scientific Equipment GmbH, Bad Hombourg, Germany), using a closed circuit digital videocamera (WV-BP.330/GE, Panasonic, Osaka, Japan). The video-signal from the camera is digitized and used for data analysis. […] The camera is placed such, that four animals (one per arena) can be recorded simultaneously.

Five compounds from US8299085B2, “Quinazoline derivatives” (Novartis AG, priority 2004, dated 2012) can be followed below.

T1 sequence (P19492 23-888): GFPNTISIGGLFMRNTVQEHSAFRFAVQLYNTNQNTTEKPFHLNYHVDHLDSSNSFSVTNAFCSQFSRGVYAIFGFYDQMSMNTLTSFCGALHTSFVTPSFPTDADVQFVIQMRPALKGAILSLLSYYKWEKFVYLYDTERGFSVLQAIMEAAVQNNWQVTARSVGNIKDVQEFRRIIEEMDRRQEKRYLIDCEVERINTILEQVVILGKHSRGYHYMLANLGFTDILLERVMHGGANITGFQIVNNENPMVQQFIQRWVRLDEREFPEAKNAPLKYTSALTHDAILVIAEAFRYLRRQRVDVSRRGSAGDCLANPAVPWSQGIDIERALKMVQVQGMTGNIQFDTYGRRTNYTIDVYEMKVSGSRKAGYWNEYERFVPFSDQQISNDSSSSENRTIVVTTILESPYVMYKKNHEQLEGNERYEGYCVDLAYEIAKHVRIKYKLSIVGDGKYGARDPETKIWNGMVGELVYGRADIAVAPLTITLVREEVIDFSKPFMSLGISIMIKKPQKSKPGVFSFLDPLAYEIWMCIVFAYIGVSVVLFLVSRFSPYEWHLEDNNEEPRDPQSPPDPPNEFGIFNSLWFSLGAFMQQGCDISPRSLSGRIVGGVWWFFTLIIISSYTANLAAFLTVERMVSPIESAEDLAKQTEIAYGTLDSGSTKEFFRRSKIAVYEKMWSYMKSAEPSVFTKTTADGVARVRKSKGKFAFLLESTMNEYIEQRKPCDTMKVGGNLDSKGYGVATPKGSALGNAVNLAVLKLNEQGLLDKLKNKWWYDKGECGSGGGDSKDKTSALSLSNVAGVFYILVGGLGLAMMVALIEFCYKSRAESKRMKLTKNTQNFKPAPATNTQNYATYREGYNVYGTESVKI

For `CN(C)c1cc2c(=O)n(NS(C)(=O)=O)c(=O)[nH]c2cc1[N+](=O)[O-]` [Example 4, N-(6-Dimethylamino-7-nitro-2,4-dioxo-1,4-dihydro-2H-quinazolin-3-yl)-methanesulfonamide], the IC50 on AMPA receptor was 0.29 µM; in test [1], 2.3 µM.

As to `CS(=O)(=O)Nn1c(=O)[nH]c2cc(C(F)(F)F)c(N3CCCOCC3)cc2c1=O` [Example 75, N-(6-[1,4]Oxazepan-4-yl-2,4-dioxo-7-trifluoromethyl-1,4-dihydro-2H-quinazolin-3-yl)-methanesulfonamide], the “pain severity ratings relative to placebo” value in test [2] was “decrease pain severity ratings relative to placebo”.

In the case of `CN(CCO)c1cc2c(=O)n(NS(C)(=O)=O)c(=O)[nH]c2cc1C(F)(F)F` [Example 83, N-{6-[(2-Hydroxy-ethyl)-methyl-amino]-2,4-dioxo-7-trifluoromethyl-1,4-dihydro-2H-quinazolin-3-yl}-methanesulfonamide], the “pain severity ratings relative to placebo” value in test [2] was “decrease pain severity ratings relative to placebo”.

For the compound `c1ccc(C2(N3CCCCC3)CCCCC2)cc1` [PCP, phencyclidine], the head-swaying and circling result in the test with Wistar Kyoto rats [3] was “induces weak head-swaying and circling”.

Consider `N[C@@H](Cc1cc(CP(=O)(O)O)cc(-c2ccccc2Cl)c1)C(=O)O` [SDZ 220-581, (S)-2-amino-3-(2′-chloro-5-phosphonomethyl-biphenyl-3-yl)-propionic acid], for which, in the test on Wistar Kyoto rats [4], the “distance walked during 30 min” value was “approximately 30 m”.

Broadly, the IC50 is the concentration that inhibits the measured activity by half.
